The experiment concerns the target T1, CDK2/cyclin A (Homo sapiens, UniProt P24941).
T1 construct: made in house; host or cells: insect ('worm') cells co-infected with baculoviruses
Description: CDK2 inhibitory activity (CDK2/cyclin A, [gamma-32P] ATP, histon H1 or Rb protein substrate). The experiment is classed as biochemical. Particulars: first IC50 column (c1) of Table 1. From the text: CDK2 enzyme was obtained from either extract from the worm cell co-infected with baculovirus which expresses a CDK2 gene and baculovirus which expresses a cyclin A gene, or active enzyme purified therefrom. CDK4 was also obtained from either extract from the worm cell co-infected with baculovirus which expresses a CDK4 gene and baculovirus which expresses a cyclin D1 gene. As substrates, histon H1 or Rb protein was used for CDK2, and Rb protein for CDK4. The radioactive activities in substrates were determined by reacting compounds diluted with each concentration with a proper quantity of CDK2/cyclin A or CDK4/cyclin D1 and substrate protein, and [gamma-32P labeled] ATP, and then separating the substrates.
Inhibitory abilities of inhibitors according to the present invention for each enzyme activity were expressed as IC50 values, which were determined in accordance with the method as described above.
For the compound `COc1ccc(CC(=O)Nc2n[nH]c3ccc(N4CCCS4(=O)=O)cc23)cc1` [Compound 38, N-[5-(1,1-dioxo-1λ^6-isothiazolidin-2-yl)-1H-indazol-3-yl]-2-(4-methoxyphenyl)acetamide], the IC50 is below 100 nM.
As for `O=C(Cc1ccc(-c2ccco2)cc1)Nc1n[nH]c2ccc(N3CCCS3(=O)=O)cc12` [Compound 39, N-[5-(1,1-dioxo-1λ^6-isothiazolidin-2-yl)-1H-indazol-3-yl]-2-[4-(2-furyl)phenyl]acetamide], the figure is below 50 nM; as for `CN1CCN(S(=O)(=O)c2ccc(CC(=O)Nc3n[nH]c4ccc(N5CCCS5(=O)=O)cc34)cc2)CC1` [Compound 40, N-[5-(1,1-dioxo-1λ^6-isothiazolidin-2-yl)-1H-indazol-3-yl]-2-4-[(4-methyl-1-piperazinyl)sulfonyl]phenylacetamide], below 1000 nM; as for `O=C(Cn1cnc2ccccc21)Nc1n[nH]c2ccc(N3CCCS3(=O)=O)cc12` [Compound 41, 2-(1H-benzimidazol-1-yl)-N-[5-(1,1-dioxo-1λ^6-isothiazolidin-2-yl)-1H-indazol-3-yl]acetamide], below 50 nM.
As for `CCOc1ccc(CC(=O)Nc2n[nH]c3ccc(N4CCCS4(=O)=O)cc23)cc1` [Compound 42, N-[5-(1,1-dioxo-1λ^6-isothiazolidin-2-yl)-1H-indazol-3-yl]-2-(4-ethoxyphenyl)acetamide], the figure is below 50 nM.
As for `O=C(Cc1ccc(CN2CCOCC2)cc1)Nc1n[nH]c2ccc(N3CCCS3(=O)=O)cc12` [Compound 43, N-[5-(1,1-dioxo-1λ^6-isothiazolidin-2-yl)-1H-indazol-3-yl]-2-[4-(4-morpholinylmethyl)phenyl]acetamide], the figure is below 100 nM; as for `O=C(Cc1ccc([N+](=O)[O-])cc1)Nc1n[nH]c2ccc(N3CCCS3(=O)=O)cc12` [Compound 45, N-[5-(1,1-dioxo-1λ^6-isothiazolidin-2-yl)-1H-indazol-3-yl]-2-(4-nitrophenyl)acetamide], below 50 nM; as for `O=C(Cc1ccc(Cn2ccnc2)cc1)Nc1n[nH]c2ccc(N3CCCS3(=O)=O)cc12` [Compound 46, N-[5-(1,1-dioxo-1λ^6-isothiazolidin-2-yl)-1H-indazol-3-yl]-2-[4-(1H-imidazole-1-ylmethyl)phenyl]acetamide], below 1000 nM.
In turn, `O=C(Cn1cnc(-c2ccccc2)c1)Nc1n[nH]c2ccc(N3CCCS3(=O)=O)cc12` [Compound 47, N-[5-(1,1-dioxo-1λ^6-isothiazolidin-2-yl)-1H-indazol-3-yl]-2-(4-phenyl-1H-imidazol-1-yl)acetamide] showed an IC50 below 50 nM.
Under `O=C(CN1CCc2ccccc2C1)Nc1n[nH]c2ccc(N3CCCS3(=O)=O)cc12` [Compound 49, 2-[3,4-dihydro-2(1H)-isoquinolinyl]-N-[5-(1,1-dioxo-1λ^6-isothiazolidin-2-yl)-1H-indazol-3-yl]acetamide] stands below 1000 nM; under `COc1ccc(N2CCN(CC(=O)Nc3n[nH]c4ccc(N5CCCS5(=O)=O)cc34)CC2)cc1` [Compound 51, N-[5-(1,1-dioxo-1λ^6-isothiazolidin-2-yl)-1H-indazol-3-yl]-2-[4-(4-methoxyphenyl)-1-piperazinyl]acetamide], below 10000 nM.
For the compound `CCOc1ccccc1N1CCN(CC(=O)Nc2n[nH]c3ccc(N4CCCS4(=O)=O)cc23)CC1` [Compound 52, N-[5-(1,1-dioxo-1λ^6-isothiazolidin-2-yl)-1H-indazol-3-yl]-2-[4-(2-ethoxyphenyl)-1-piperazinyl]acetamide], the IC50 was below 10000 nM.
For the compound `CC(=O)c1ccc(N2CCN(CC(=O)Nc3n[nH]c4ccc(N5CCCS5(=O)=O)cc34)CC2)cc1` [Compound 53, 2-[4-(4-acetylphenyl)-1-piperazinyl]-N-[5-(1,1-dioxo-1λ^6-isothiazolidin-2-yl)-1H-indazol-3-yl]acetamide], the IC50 is below 10000 nM.
Under `O=C(Cc1ccc(Oc2ccccc2)cc1)Nc1n[nH]c2ccc(N3CCCS3(=O)=O)cc12` [Compound 54, N-[5-(1,1-dioxo-1λ^6-isothiazolidin-2-yl)-1H-indazol-3-yl]-2-(4-phenoxyphenyl)acetamide] stands below 100 nM; under `O=C(Nc1n[nH]c2ccc(N3CCCS3(=O)=O)cc12)C1(c2ccccc2)CCCC1` [Compound 55, N-[5-(1,1-dioxo-1λ^6-isothiazolidin-2-yl)-1H-indazol-3-yl]-1-phenylcyclopentanecarboxamide], below 100000 nM; under `O=C(Nc1n[nH]c2ccc(N3CCCS3(=O)=O)cc12)C(c1ccccc1)C1CCCC1` (stereo not drawn) [Compound 56, 2-cyclopentyl-N-[5-(1,1-dioxo-1λ^6-isothiazolidin-2-yl)-1H-indazol-3-yl]-2-phenylacetamide], below 100000 nM.
Under `CCC(C(=O)Nc1n[nH]c2ccc(N3CCCS3(=O)=O)cc12)c1ccccc1` (stereo not drawn) [Compound 57, N-[5-(1,1-dioxo-1λ^6-isothiazolidin-2-yl)-1H-indazol-3-yl]-2-phenylbutanamide] stands below 100000 nM; under `CC(C)(C)OC(=O)Nc1nc(CC(=O)Nc2n[nH]c3ccc(N4CCCS4(=O)=O)cc23)cs1` [Compound 58, t-butyl 4-(2-[5-(1,1-dioxo-1λ^6-isothiazolidin-2-yl)-1H-indazol-3-yl]amino-2-oxoethyl)-1,3-thiazol-2-ylcarbamate], below 100 nM; under `CCOCCOCCOc1ccc(CC(=O)Nc2n[nH]c3ccc(N4CCCS4(=O)=O)cc23)cc1` [Compound 59, N-[5-(1,1-dioxo-1λ^6-isothiazolidin-2-yl)-1H-indazol-3-yl]-2-4-[2-(2-ethoxyethoxy)ethoxy]phenylacetamide], below 100 nM.
As for `Nc1nc(CC(=O)Nc2n[nH]c3ccc(N4CCCS4(=O)=O)cc23)cs1` [Compound 60, 2-(2-amino-1,3-thiazol-4-yl)-N-[5-(1,1-dioxo-1λ^6-isothiazolidin-2-yl)-1H-indazol-3-yl]acetamide], the figure is below 500 nM; as for `O=C(Cn1cnc(-c2ccc(Br)cc2)c1)Nc1n[nH]c2ccc(N3CCCS3(=O)=O)cc12` [Compound 61, 2-[4-(4-bromophenyl)-1H-imidazol-1-yl]-N-[5-(1,1-dioxo-1λ^6-isothiazolidin-2-yl)-1H-indazol-3-yl]acetamide], below 100 nM.
`O=C(Cn1cnc(-c2ccc3ccccc3c2)c1)Nc1n[nH]c2ccc(N3CCCS3(=O)=O)cc12` [Compound 62, N-[5-(1,1-dioxo-1λ^6-isothiazolidin-2-yl)-1H-indazol-3-yl]-2-[4-(2-naphthyl)-1H-imidazol-1-yl]acetamide]: the IC50 was below 50 nM.
As for `O=C(Cn1cnc(-c2ccc(-c3ccccc3)cc2)c1)Nc1n[nH]c2ccc(N3CCCS3(=O)=O)cc12` [Compound 63, 2-(4-[1,1′-biphenyl]-4-yl-1H-imidazol-1-yl)-N-[5-(1,1-dioxo-1λ^6-isothiazolidin-2-yl)-1H-indazol-3-yl]acetamide], the figure is below 500 nM; as for `CCNc1nc(CC(=O)Nc2n[nH]c3ccc(N4CCCS4(=O)=O)cc23)cs1` [Compound 64, N-[5-(1,1-dioxo-1λ^6-isothiazolidin-2-yl)-1H-indazol-3-yl]-2-[2-(ethylamino)-1,3-thiazol-4-yl]acetamide], below 500 nM; as for `CCN(CC)c1nc(CC(=O)Nc2n[nH]c3ccc(N4CCCS4(=O)=O)cc23)cs1` [Compound 65, 2-[2-(diethylamino)-1,3-thiazol-4-yl]-N-[5-(1,1-dioxo-1λ^6-isothiazolidin-2-yl)-1H-indazol-3-yl]acetamide], below 500 nM.
As for `COCCOCCOCCOc1ccc(CC(=O)Nc2n[nH]c3ccc(N4CCCS4(=O)=O)cc23)cc1` [Compound 66, N-[5-(1,1-dioxo-1λ^6-isothiazolidin-2-yl)-1H-indazol-3-yl]-2-(4-2-[2-(2-methoxyethoxy)ethoxy]ethoxyphenyl)acetamide], the figure is below 100 nM; as for `CCOc1ccc(CC(=O)Nc2n[nH]c3ccc(N4CCCS4(=O)=O)cc23)cc1[N+](=O)[O-]` [Compound 67, N-[5-(1,1-dioxo-1λ^6-isothiazolidin-2-yl)-1H-indazol-3-yl]-2-(4-ethoxy-3-nitrophenyl)acetamide], below 50 nM.
As for `Cc1ccccc1CC(=O)Nc1n[nH]c2ccc(N3CCCS3(=O)=O)cc12` [Compound 68, N-[5-(1,1-dioxo-1λ^6-isothiazolidin-2-yl)-1H-indazol-3-yl]-2-(2-methylphenyl)acetamide], the figure is below 100 nM; as for `CCNc1cccc(CC(=O)Nc2n[nH]c3ccc(N4CCCS4(=O)=O)cc23)c1` [Compound 69, N-[5-(1,1-dioxo-1λ^6-isothiazolidin-2-yl)-1H-indazol-3-yl]-2-[3-(ethylamino)phenyl]acetamide], below 500 nM; as for `CCN(CC)c1cccc(CC(=O)Nc2n[nH]c3ccc(N4CCCS4(=O)=O)cc23)c1` [Compound 70, 2-[3-(diethylamino)phenyl]-N-[5-(1,1-dioxo-1λ^6-isothiazolidin-2-yl)-1H-indazol-3-yl]acetamide], below 500 nM.
`COc1cc(CC(=O)Nc2n[nH]c3ccc(N4CCCS4(=O)=O)cc23)cc(OC)c1` [Compound 71, 2-(3,5-dimethoxyphenyl)-N-[5-(1,1-dioxo-1λ^6-isothiazolidin-2-yl)-1H-indazol-3-yl]acetamide] displayed a half-maximal inhibitory concentration (IC50) below 50 nM.
For the compound `CCNc1ccc(CC(=O)Nc2n[nH]c3ccc(N4CCCS4(=O)=O)cc23)cc1` [Compound 72, N-[5-(1,1-dioxo-1λ^6-isothiazolidin-2-yl)-1H-indazol-3-yl]-2-[4-(ethylamino)phenyl]acetamide], the IC50 was below 50 nM.
As for `CCN(CC)c1ccc(CC(=O)Nc2n[nH]c3ccc(N4CCCS4(=O)=O)cc23)cc1` [Compound 73, 2-[4-(diethylamino)phenyl]-N-[5-(1,1-dioxo-1λ^6-isothiazolidin-2-yl)-1H-indazol-3-yl]acetamide], the figure is below 50 nM.

The term IC50 denotes the concentration needed to halve the response being measured.

Source of the values: patent publication US6620831B2, “Indazoles substituted with 1,1-dioxoisothiazolidine useful as inhibitors of cell proliferation” (LG Life Sciences Ltd., priority 2000, dated 2003).
